What follows are compounds tested against T1, rabbit reticulocyte 15-LO (Oryctolagus cuniculus, UniProt P12530) (assay: Rabbit Reticulocyte 15-LO Assay (h15LO)). Conditions: Table 2; 2U rabbit reticulocyte 15-LO, 174 μM linoleic acid, 15 minutes at 4° C.
T1 construct: Fifteen-lipoxygenase was obtained from phenylhydrazine-treated rabbits and purified per the method of Rapoport; from tissue; host or cells: reticulocytes of phenylhydrazine-treated rabbits
T1 sequence (P12530 1-663): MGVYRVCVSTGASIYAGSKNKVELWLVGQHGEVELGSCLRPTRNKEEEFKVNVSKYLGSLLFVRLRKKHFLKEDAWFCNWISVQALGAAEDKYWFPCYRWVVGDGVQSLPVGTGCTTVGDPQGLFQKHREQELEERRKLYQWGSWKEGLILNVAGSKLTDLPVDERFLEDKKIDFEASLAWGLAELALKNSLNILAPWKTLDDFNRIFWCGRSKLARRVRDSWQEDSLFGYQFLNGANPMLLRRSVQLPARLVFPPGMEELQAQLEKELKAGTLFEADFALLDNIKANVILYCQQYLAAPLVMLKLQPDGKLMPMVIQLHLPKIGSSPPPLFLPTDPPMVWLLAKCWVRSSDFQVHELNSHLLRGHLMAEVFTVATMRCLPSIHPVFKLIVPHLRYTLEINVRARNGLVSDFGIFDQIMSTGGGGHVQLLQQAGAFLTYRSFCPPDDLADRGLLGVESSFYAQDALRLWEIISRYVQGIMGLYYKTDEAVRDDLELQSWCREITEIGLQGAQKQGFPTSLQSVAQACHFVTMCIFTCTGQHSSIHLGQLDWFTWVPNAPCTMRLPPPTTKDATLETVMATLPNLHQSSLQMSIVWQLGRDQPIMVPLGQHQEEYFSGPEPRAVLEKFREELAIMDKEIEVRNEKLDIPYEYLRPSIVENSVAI
Type: biochemical
Method: Rabbit Reticulocyte 15-LO Assay (h15LO)
The present 15-LO assay takes advantage of the ability of 15-LO to oxidize the fatty acid linoleic acid to the hydroperoxy fatty acid 13-(S)HPODE, resulting in the formation of a conjugated diene. The 15-LO inhibitors are incubated with 15-LO enzyme in the presence of linoleic acid substrate. The initial reaction is compared to an uninhibited (maximal) reaction to yield % inhibition. […] This prevents artificial nonenzyme lipid peroxidation and product breakdown in the sample. 13-HPODE is quantitated by comparing peak areas of individual samples with those from a standard curve generated using authentic 13-HODE. This assay is performed using 2U of rabbit reticulocyte 15-LO in the presence of 174 μM linoleic acid. The reaction is incubated for 15 minutes at 4° C. The total reaction volume is 100 μL in PBS containing 0.2% Na cholate.
Fifteen-lipoxygenase was obtained from phenylhydrazine-treated rabbits and purified per the method of Rapoport (Rapoport S. M., Schewe T., Wiesner R., et al. The lipoxygenase of reticulocytes. Purification, characterization, and biological dynamics of the lipoxygenase; its identity with the respiratory inhibitors of the reticulocyte. European Journal of Biochemistry, 1979;96:545-561). The following chemicals were purchased and used as received: linoleic acid (NUJCheck Prep), 13-HPODE (Biomol Research Labs), sodium cholate (Sigma), trimethyl phosphite (Fluka Chemicals).

Row | IC50 [nM] | Structure (SMILES)
1 | 800 | COc1ccc(C(=O)OCc2ccccc2)cc1NC(=S)Nc1cc(Cl)cc(Cl)c1 [Example 176, 3-[3-(3,5-Dichloro-phenyl)-thioureido]-4-methoxy-benzoic Acid Benzyl Ester]
2 | 2 | CCCCCCCCCCCCS(=O)(=O)Nc1cc(C(=O)Nc2ccccc2)ccc1OC [Example 177, 3-(Dodecane-1-sulfonylamino)-4-methoxy-N-phenyl-benzamide]
3 | 4 | CCCCCCCCS(=O)(=O)Nc1cc(C(=O)Nc2ccccc2)ccc1OC [Example 178, 4-Methoxy-3-(octane-1-sulfonylamino)-N-phenyl-benzamide]
4 | 7 | CCCCCCCCCCS(=O)(=O)Nc1cc(C(=O)Nc2ccccc2)ccc1OC [Example 179, 3-(Decane-1-sulfonylamino)-4-methoxy-N-phenyl-benzamide]
5 | 36 | COc1ccc(C(=O)Nc2ccc(F)c(F)c2)cc1NS(=O)(=O)c1cccc([N+](=O)[O-])c1 [Example 180, 3-(3-Nitro-benzenesufonylamino)-4-methoxy-N-(3,4-difluoro-phenyl)-benzamide]
6 | 232 | COc1ccc(C(=O)Nc2ccccc2)cc1NS(=O)(=O)C(C)C [Example 182, 3-(1-Methylethyl-1-sulfonylamino)-4-methoxy-N-phenyl-benzamide]
7 | 293 | COc1ccc(C(=O)Nc2ccccc2)cc1NS(=O)(=O)c1ccc(C(=O)O)cc1 [Example 183, 4-(2-Methoxy-5-phenylcarbamoyl-phenylsulfamoyl)-benzoic Acid]
8 | 732 | CCCCCCCCCCCCCCCCCCS(=O)(=O)Nc1cc(C(=O)Nc2ccccc2)ccc1OC [Example 184, 3-(Octadecane-1-sulfonylamino)-4-methoxy-N-phenyl-benzamide]
9 | 33 | COc1ccc(S(=O)(=O)Nc2cc(NC(=O)c3ccc(Cl)c(Cl)c3)ccc2OC)cc1 [Example 196, 3,4-Dichloro-N-[4-methoxy-3-(4-methoxy-benzenesulfonylamino)-phenyl]-benzamide]
10 | 36 | COc1ccc(NC(=O)c2ccc(Cl)c(Cl)c2)cc1NS(=O)(=O)c1ccc(C)cc1 [Example 197, 3,4-Dichloro-N-[4-methoxy-3-(toluene-4-sulfonylamino)-phenyl]-benzamide]

Same assay, conditions: Table 2; concentration not given

Row | h15LO, value given as bare % [%] | Structure (SMILES)
11 | 53 | COc1ccc(NC(=O)Nc2ccc(Cl)c(Cl)c2)cc1NC(=S)Nc1cc(C(F)(F)F)cc(C(F)(F)F)c1 [Example 174, 1-{3-[3-(3,5-Bis-trifluoromethyl-phenyl)-thioureido]-4-methoxy-phenyl}-3-(3,4-dichloro-phenyl)-urea]
12 | 52 | COc1ccc(NC(=O)Nc2ccc(Cl)c(Cl)c2)cc1NC(=S)Nc1ccc(Cl)c([N+](=O)[O-])c1 [Example 175, 1-{3-[3-(4-Chloro-3-nitro-phenyl)-thioureido]-4-methoxy-phenyl}-3-(3,4-dichloro-phenyl)-urea]
13 | 99.71 | COc1ccc(C(=O)Nc2ccc(F)c(F)c2)cc1NS(=O)(=O)c1cccc(N)c1 [Example 185, 3-(3-Amino-benzenesulfonylamino)-4-methoxy-N-(3,4-difluoro-phenyl)-benzamide]
14 | 99.35 | COc1ccc(C(=O)Nc2ccc(F)c(F)c2)cc1NS(=O)(=O)c1ccc([N+](=O)[O-])cc1 [Example 186, 4-Methoxy-3-(4-nitro-benzenesulfonylamino)-N-(3,4-difluoro-phenyl)-benzamide]
15 | 98.38 | COc1ccc(C(=O)Nc2ccc(F)c(F)c2)cc1NS(=O)(=O)c1ccc(C#N)cc1 [Example 187, 3-(4-Cyano-benzenesulfonylamino)-4-methoxy-N-(3,4-difluoro-phenyl)-benzamide]
16 | 97.24 | COc1ccc(C(=O)Nc2ccccc2)cc1NS(=O)(=O)c1ccc([N+](=O)[O-])cc1 [Example 188, 4-Methoxy-3-(4-nitro-benzenesulfonylamino)-N-phenyl-benzamide]
17 | 97.17 | COc1ccc(C(=O)Nc2ccc(F)cc2)cc1NS(=O)(=O)c1cccc(C#N)c1 [Example 189, 3-(3-Cyano-benzenesulfonylamino)-4-methoxy-N-(4-fluoro-phenyl)-benzamide]
18 | 97.05 | COc1ccc(C(=O)Nc2ccc(F)cc2)cc1NS(=O)(=O)c1cccc([N+](=O)[O-])c1 [Example 190, 4-Methoxy-3-(3-nitro-benzenesulfonylamino)-N-(4-fluoro-phenyl)-benzamide]
19 | 96.99 | COc1ccc(C(=O)Nc2ccc(F)cc2)cc1NS(=O)(=O)c1ccc([N+](=O)[O-])cc1 [Example 191, 4-Methoxy-3-(4-nitro-benzenesulfonylamino)-N-(4-fluoro-phenyl)-benzamide]
20 | 95.56 | COc1ccc(C(=O)Nc2ccccc2)cc1NS(=O)(=O)c1ccc(C#N)cc1 [Example 192, 3-(4-Cyano-benzenesulfonylamino)-4-methoxy-N -phenyl-benzamide]
21 | 94.51 | COc1ccc(C(=O)Nc2ccc(F)cc2)cc1NS(=O)(=O)c1ccc(C#N)cc1 [Example 193, 3-(4-Cyano-benzenesulfonylamino)-4-methoxy-N-(4-fluoro-phenyl)-benzamide]
22 | 93.07 | COc1ccc(C(=O)Nc2ccccc2)cc1NS(=O)(=O)c1cccc(C#N)c1 [Example 195, 3-(3-Cyano-benzenesulfonylamino)-4-methoxy-N-phenyl-benzamide]
23 | 97.77 | COc1ccc(NC(=O)c2ccc(F)c(F)c2)cc1NS(=O)(=O)c1cccc(N)c1 [Example 198, 3,4-Difluoro-N-[4-methoxy-3-(3-amino-benzenesulfonylamino)-phenyl]-benzamide]
24 | 97.68 | COc1ccc(NC(=O)c2ccc(F)c(F)c2)cc1NS(=O)(=O)c1ccc(N)cc1 [Example 199, 3,4-Difluoro-N-[4-methoxy-3-(4-amino-benzenesulfonylamino)-phenyl]-benzamide]
25 | 96.92 | CCCCCCCCCCCCS(=O)(=O)Nc1cc(NC(=O)c2ccc(F)c(F)c2)ccc1OC [Example 200, 3,4-Difluoro-N-[4-methoxy-3-(1-dodecane-sulfonylamino)-phenyl]-benzamide]
26 | 93.97 | COc1ccc(NC(=O)c2ccc(F)c(F)c2)cc1NS(=O)(=O)CCl [Example 201, 3,4-Difluoro-N-[4-methoxy-3-(chloromethyl-sulfonylamino)-phenyl]. benzamide]
27 | 93.85 | COc1ccc(NC(=O)c2ccc(F)c(F)c2)cc1NS(=O)(=O)c1ccc([N+](=O)[O-])cc1 [Example 202, 3,4-Difluoro-N-[4-methoxy-3-(4-nitro-benzenesulfonylamino)-phenyl]-benzamide]
28 | 92.01 | COc1ccc(NC(=O)c2ccc(F)c(F)c2)cc1NS(=O)(=O)c1cccc([N+](=O)[O-])c1 [Example 203, 3,4-Difluoro-N-[4-methoxy-3-(3-nitro-benzenesulfonylamino)-phenyl]-benzamide]
29 | 89.54 | COc1ccc(NC(=O)c2ccc(F)c(F)c2)cc1NS(=O)(=O)c1ccc(C#N)cc1 [Example 204, 3,4-Difluoro-N-[3-(4-cyano-benzenesulfonylamino)-4-methoxy-phenyl]-benzamide]
